# From patent US4482566A, “Substituted aminoalkylbenzene type lower acylamides” (Teikoku Hormone Mfg. Co., Ltd., priority 1979, dated 1984)
# What was measured:
# [1] = test system: gastric acid secretion induced by histamine; assay: Inhibitory action against the gastric acid secretion induced by histamine (perfused stomach, anesthetized rats); type: in vivo; conditions: Rattus norvegicus, 1 h; male Donryu rats, urethane anesthesia; compound injected before histamine dihydrochloride 5 mg/kg i.v.; acid output during 60 min; read-out: ED50, dose to inhibit 50% of acid output of the control
# Method: Inhibitory action of a test compound against the gastric acid secretion induced by histamine was determined according to the method of Ghosh and Schild (M. N. Ghosh and H. O. Schild: Br. J. Pharmacol. 13, 54, 1958) with some modifications. Male Donryu rats weighing 200±10 g were deprived of food for 24 hr prior to the experiments, with water ad lib. Under the anesthesia with 1.2 g/kg of subcutaneous urethane, trachea and cervical vein were cannulated. With midline opening, the duodenum immediately below the junction with pylorus was incised and after the stomach was flashed with saline for several times, the polyethylene tube was inserted into the pylorus through the incision, and ligated with surrounding tissues keeping the blood vessels intact. The polyvinyl tube was inserted into the mouth up to the forestomach through the esophagus and ligated at the cervical level. Saline solution kept at 35° C. was perfused through the polyvinyl tube at the rate of 1 ml/min, and the perfusate was collected through the polyethylene tube of the pylorus. The perfusate was collected for 30 min and was titrated by 0.01N NaOH with phenolphthalein as an indicator to obtain a total acid output(mEq). Subsequently, the perfusate was collected for every 30 min. After the acid output became constant, the stomach was perfused for further 60 min. After that, in the control group, 0.1 ml of saline per 100 g of body weight was intravenously injected, 10 min later 5 mg/kg of histamine dihydrochloride was injected intravenously. The perfusate for 60 min after histamine injection was collected and determined the acidity. The amount of acid output during 60 min after histamine injection subtracted that for 60 min before histamine was regarded as the acid output response to histamine. In the test groups, following the injection of three compounds (A), (B) and (C) instead of saline, 5 mg/kg of histamine dihydrochloride was injected and acid output was determined. Decreased ratio of the acid output to the control was calculated as the response to the test compound. […]
# Acute toxicity = conditions: mouse, in vivo, po, SLC-ddY male mice of aging 4 weeks
# Method: To test the acute toxicity of each compound (A), (B) and (C), LD50 was determined using SLC-ddY male mice of aging 4 weeks.
# histamine H2 receptor = target: T1, histamine H2 receptor (Cavia porcellus, UniProt P47747); assay: Blocking action on histamine H2 receptor in vitro (positive chronotropic effect of histamine in spontaneously beating atria); conditions: negative logarithm of concentration required to shift dose-response of histamine to the right by 2-fold; guinea pig atria; read-out: pA2 (converted)
# T1 construct: spontaneously beating atria of guinea pig in vitro; from tissue; host or cells: spontaneously beating guinea pig atria
# T1 sequence (P47747 whole entry): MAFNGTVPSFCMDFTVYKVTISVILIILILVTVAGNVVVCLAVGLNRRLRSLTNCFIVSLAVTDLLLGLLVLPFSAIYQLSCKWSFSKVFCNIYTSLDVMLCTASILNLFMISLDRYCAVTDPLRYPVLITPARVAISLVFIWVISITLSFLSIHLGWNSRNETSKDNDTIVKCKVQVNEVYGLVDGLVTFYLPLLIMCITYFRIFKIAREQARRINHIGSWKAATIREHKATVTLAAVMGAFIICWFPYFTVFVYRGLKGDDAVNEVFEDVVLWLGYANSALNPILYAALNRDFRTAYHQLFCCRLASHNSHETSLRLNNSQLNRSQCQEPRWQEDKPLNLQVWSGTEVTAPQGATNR
# Method: Histamine H2 receptor blocking activity of the compound was determined by obtaining the dose-response relationship of the positive chronotropic effect of histamine in spontaneously beating atria of guinea pig in vitro, in the absence and in the presence of a test compound. […] E. J. Ariens. Molecular Pharmacology, vol. 1, 153-156 (1964), Academic Press, New York).
SMILES,ED50 [1] [mg/kg],LD50 (Acute toxicity) [mg/kg],Kb (histamine H2 receptor) [nM]
O=C(NCCCOc1cccc(CN2CCCC2)c1)c1cccnc1 [A],1.25,> 1000,
O=C(NCCCOc1cccc(CN2CCCC2)c1)c1cccnc1 [Example 1],,,129
O=C(NCCCOc1cccc(CN2CCCC2)c1)c1ccccc1 [Example 2],,,191
O=C(NCCCOc1cccc(CN2CCCC2)c1)c1cccs1 [Example 3],,,138
CC(=O)NCCCOc1cccc(CN2CCCC2)c1 [Example 4],,,195
COC(=O)c1ccc(C(=O)NCCCOc2cccc(CN3CCCC3)c2)cc1 [Example 5],,,81.3
O=CNCCCOc1cccc(CN2CCCC2)c1 [Example 6],,,170
O=C(NCCCOc1cccc(CN2CCCC2)c1)c1ccc([N+](=O)[O-])cc1 [Example 7],,,100
O=C(NCCCOc1cccc(CN2CCCC2)c1)c1cc(-c2ccccc2)on1 [Example 8],,,186
"CC(=O)NCCCOc1cccc(CN2CCCC2)c1 [compound 4, 3-(3-acetamidopropoxy)-1-(1-pyrrolidinylmethyl)benzene]",1.65,> 1000,
O=CNCCCOc1cccc(CN2CCCC2)c1 [compound 6],0.84,> 1000,
